From patent US8865716B2, “Dihydropteridinones II” (Boehringer Ingelheim International GmbH, priority 2013, dated 2014)

test system: Aβ42; assay: Aβ42 production in H4 neuroglioma cells stably expressing human APP695 (Meso Scale Discovery electrochemiluminescence assay); assay type: cell-based; settings: higher ratio = more specific inhibition of Aβ42 over Aβ total
Description: Cells were plated out to near confluency. The compounds to be tested were received as 10 mM stocks in 100% DMSO. A dilution series was initially generated in 100% DMSO and then diluted 200-fold in cell culture media such that the tested concentration range was 30 μM to 0.1 nM and the final DMSO concentration was 0.5%. The diluted compounds were incubated with the cells for 22 hours in an incubator at 37° C. and 5% CO2. Aβ42 as well as Aβ total levels were then measured post-incubation from the supernatant of the cells. Aβ42 levels were determined using a specific electrochemiluminescence assay provided by Meso Scale Discovery (Catalog #L21CA-1) according to the manufacturer's protocol. Aβ total levels were likewise determined using a specific electrochemiluminescence assay provided by Meso Scale Discovery (Catalog #L21ZA-1) according to the manufacturer's protocol.
In order to absolutely define the described compounds as modulators of γ-Secretase as opposed to simply inhibitors of γ-Secretase, measurements of not only Aβ42 but also Aβ total are performed.

| SMILES | Ratio Aβ(total)/Aβ42 (Aβ total IC50/Aβ42 IC50) |
| --- | --- |
| COc1cc(Nc2ncc3c(n2)N(C)C2(CCOCC2)C(=O)N3C)ccc1-c1cnc(C)o1 [Example 1] | >244 |
| Cc1ncc(-c2ccc(Nc3ncc4c(n3)N(C)C3(CCOCC3)C(=O)N4C)cn2)o1 [Example 3] | >6 |
| Cc1ncc(-c2ccc(Nc3nc(C)c4c(n3)N(C)C3(CCOCC3)C(=O)N4C)cn2)o1 [Example 5] | >9 |
| COc1cc(Nc2ncc3c(n2)N(C)C2(CCOC2)C(=O)N3C)ccc1-c1cnc(C)o1 (stereo not shown) [Example 7] | >315 |
| Cc1ncc(-c2ccc(Nc3ncc4c(n3)N(C)C3(CCOC3)C(=O)N4C)cn2)o1 (stereo not shown) [Example 8] | >10 |
| COCCN1C(=O)C2(CCOCC2)N(C)c2nc(Nc3ccc(-c4ccnc(C)c4)cc3)ncc21 [Example 12] | 11 |
| COCCN1C(=O)C2(CCOCC2)N(C)c2nc(Nc3ccc(-n4cnc(C)n4)c(OC)c3)ncc21 [Example 13] | >13 |
| COCCN1C(=O)C2(CCOC2)N(C)c2nc(Nc3ccc(-c4ccnc(C)c4)cc3)ncc21 (stereo not shown) [Example 14] | >27 |
| COCCN1C(=O)C2(CCOC2)N(C)c2nc(Nc3ccc(-n4cnc(C)n4)c(OC)c3)ncc21 (stereo not shown) [Example 15] | >15 |
| Cc1cn(-c2ccc(Nc3ncc4c(n3)NC3(CCOC3)C(=O)N4C)cc2C#N)cn1 (stereo not shown) [Example 19] | >257 |
| COc1cc(Nc2ncc3c(n2)N(CC2CCOCC2)C2(CCOC2)C(=O)N3CC2CCOCC2)ccc1-n1cnc(C)c1 (stereo not shown) [Example 24] | >10 |
| COCCN1c2nc(Nc3ccc(-n4cnc(C)c4)c(OC)c3)nc(CC(C)C)c2N(C)C(=O)C12CCOC2 (stereo not shown) [Example 30] | 96 |
| COCCN1c2nc(Nc3ccc(-c4cnc(C)o4)c(OC)c3)nc(CC(C)C)c2N(C)C(=O)C12CCOC2 (stereo not shown) [Example 31] | 47 |
| CCc1nc(Nc2ccc(-n3cnc(C)c3)c(C#N)c2)nc2c1N(C)C(=O)C1(CCOC1)N2C (stereo not shown) [Example 35] | 180 |
| Cc1ncc(-c2ccc(Nc3ncc4c(n3)N(C)C3(CCc5ccccc5C3)C(=O)N4C)cn2)o1 (stereo not shown) [Example 37] | 29 |
| COc1cc(Nc2nc3c(c(C(F)(F)F)n2)N(C)C(=O)C2(CCOCC2)N3C)ccc1-n1cnc(C)c1 [Example 37d] | >36 |
| CCc1nc(Nc2cnc(-n3cnc(C)c3)c(OC)c2)nc2c1N(C)C(=O)C1(CC1)N2C [Example 37i] | 54 |
| COc1cc(Nc2nc3c(c(C(C)(C)O)n2)N(C)C(=O)C2(CCOC2)N3C)ccc1-c1cnc(C)o1 (stereo not shown) [Example 40] | >62 |
| COc1cc(Nc2ncc3c(n2)N(C)C2(CCC2)C(=O)N3CC(F)(F)F)ccc1-c1cnc(C)o1 [Example 45] | >517 |
| COc1cc(Nc2ncc3c(n2)N(C)C2(CC4CCC2C4)C(=O)N3C)cnc1-n1cnc(C)c1 (stereo not shown) [Example 49] | 69 |
| COc1cc(Nc2ncc3c(n2)N(C)C2(CC2)C(=O)N3CC(F)(F)F)cnc1-n1cnc(C)c1 [Example 50] | >147 |

Further lines, results first:

| Ratio Aβ(total)/Aβ42 (Aβ total IC50/Aβ42 IC50) | SMILES |
| --- | --- |
| 89 | COc1cc(Nc2ncc3c(n2)N(C)C2(CCOCC2)C(=O)N3C)ccc1-n1cnc(C)c1 [Example 2] |
| >136 | COc1cc(Nc2ncc3c(n2)N(C)C2(CCOC2)C(=O)N3C)ccc1-n1cnc(C)c1 (stereo not shown) [Example 6] |
| >101 | COc1cc(Nc2ncc3c(n2)N(C)C2(CCOCC2)C(=O)N3)ccc1-n1cnc(C)c1 [Example 9] |
| 46 | COc1cc(Nc2ncc3c(n2)N(C)C2(CCOC2)C(=O)N3)ccc1-n1cnc(C)c1 (stereo not shown) [Example 10] |
| 26 | COCCN1C(=O)C2(CCOCC2)N(C)c2nc(Nc3ccc(-n4cnc(C)c4)c(OC)c3)ncc21 [Example 11] |
| 88 | COCCN1C(=O)C2(CCOC2)N(C)c2nc(Nc3ccc(-n4cnc(C)c4)c(OC)c3)ncc21 (stereo not shown) [Example 16] |
| 65 | CCCN1C(=O)C2(CCOCC2)N(C)c2nc(Nc3ccc(-n4cnc(C)c4)c(OC)c3)ncc21 [Example 17] |
| >90 | COc1cc(Nc2ncc3c(n2)NC2(CCOC2)C(=O)N3C)ccc1-n1cnc(C)c1 (stereo not shown) [Example 20] |
| >9 | COc1cc(Nc2ncc3c(n2)NC2(CCOC2)C(=O)N3CC2CCOCC2)ccc1-n1cnc(C)c1 (stereo not shown) [Example 22] |
| 91 | COc1cc(Nc2ncc3c(n2)N(C)C2(COCCOC2)C(=O)N3)ccc1-n1cnc(C)c1 [Example 25] |
| 46 | COc1cc(Nc2ncc3c(n2)N(C)C2(CCOC2)C(=O)N3CC2CCOCC2)ccc1-n1cnc(C)c1 (stereo not shown) [Example 26] |
| >112 | COc1cc(Nc2ncc3c(n2)N(C)C2(COCCOC2)C(=O)N3C)ccc1-n1cnc(C)c1 [Example 27] |
| >3 | COc1cc(Nc2ncc3c(n2)NC2(CCOC2)C(=O)N3C2COC2)ccc1-n1cnc(C)c1 (stereo not shown) [Example 28] |
| 39 | COc1cc(Nc2ncc3c(n2)NC2(CCOC2)C(=O)N3CCC(C)C)ccc1-n1cnc(C)c1 (stereo not shown) [Example 29] |
| 47 | COc1cc(Nc2ncc3c(n2)N(C)C2(CCOCC2)C(=O)N3C2CC2)ccc1-n1cnc(C)c1 [Example 37b] |
| 75 | COc1cc(Nc2ncc3c(n2)N(C)C2(CCOCC2)C(=O)N3c2cc(F)cc(F)c2)ccc1-n1cnc(C)c1 [Example 37c] |

| Ratio Aβ(total)/Aβ42 (Aβ total IC50/Aβ42 IC50) | SMILES |
| --- | --- |
| 82 | COc1cc(Nc2ncc3c(n2)N(C)C2(CCOC2)C(=O)N3CC(F)(F)F)ccc1-n1cnc(C)c1 (stereo not shown) [Example 37e] |
| 55 | COc1cc(Nc2ncc3c(n2)N(C)C2(CCOCC2)C(=O)N3c2ccc(F)cc2)ccc1-n1cnc(C)c1 [Example 37f] |
| 58 | COc1cc(Nc2ncc3c(n2)N(C)C2(CCOC2)C(=O)N3C2CC2)ccc1-n1cnc(C)c1 (stereo not shown) [Example 37g] |
| 85 | COc1cc(Nc2ncc3c(n2)N(C)C2(CCOC2)C(=O)N3CC(F)F)ccc1-n1cnc(C)c1 (stereo not shown) [Example 37h] |
| 57 | COc1cc(Nc2ncc3c(n2)N(C)C2(CCOCC2)C(=O)N3Cc2ccc(F)cc2F)ccc1-n1cnc(C)c1 [Example 37j] |
| 88 | COc1cc(Nc2ncc3c(n2)N(C)C2(CCOC2)C(=O)N3C(C)c2ccccn2)ccc1-n1cnc(C)c1 (stereo not shown) [Example 37k] |
| >15 | COc1cc(Nc2ncc3c(n2)N(C2CCCC2)C2(CC2)C(=O)N3C)ccc1-n1cnc(C)c1 [Example 38] |
| 91 | COc1cc(Nc2ncc3c(n2)N(C)C2(CCCCOC2)C(=O)N3C)ccc1-n1cnc(C)c1 (stereo not shown) [Example 39] |
| >25 | COc1cc(Nc2ncc3c(n2)N(C)C2(COC2)C(=O)N3C)ccc1-n1cnc(C)c1 [Example 41] |
| 51 | COc1cc(Nc2ncc3c(n2)N(C)C2(CCCOCC2)C(=O)N3C)ccc1-n1cnc(C)c1 (stereo not shown) [Example 42] |
| 50 | COc1cc(Nc2ncc3c(n2)N(C)C2(CC2)C(=O)N3CC(F)(F)F)ccc1-n1cnc(C)c1 [Example 44] |
| >306 | COc1cc(Nc2ncc3c(n2)N(C)C2(CC2)C(=O)N3c2ccc(F)cc2)ccc1-n1cnc(C)c1 [Example 46] |
| 98 | COc1cc(Nc2ncc3c(n2)N(C)C2(CC2)C(=O)N3C2COC2)ccc1-n1cnc(C)c1 [Example 47] |
| 22 | COc1cc(Nc2ncc3c(n2)N(C)C2(CCOC2)C(=O)N3c2ccc(C(F)(F)F)cn2)ccc1-n1cnc(C)c1 (stereo not shown) [Example 48] |
| 61 | COc1cc(Nc2ncc3c(n2)N(C)C2(CC2)C(=O)N3CC(F)F)ccc1-n1cnc(C)c1 [Example 52] |
